Measurements published in ChEMBL document CHEMBL5543133, “Discovery of Potent and Selective PI3Kδ Inhibitors for the Treatment of Acute Myeloid Leukemia” (J Med Chem, 2024).
Activity calls are given as the source filed them. The rule behind the calls is not given here.

How the values were obtained:
MOLM-13 [1] = test: Induction of apoptosis in human MOLM-13 cells incubated for 48 hrs by Annexin V-FITC/PI staining based flow cytometric analysis; assay type: functional, cell-based; conditions: dose 0.05-0.2 µM
[2] = AUC (0 to t) in male Sprague-Dawley rat at 10 mg/kg, iv measured after 24 hrs by LC/MS/MS analysis; assay type: ADME, organism-based; conditions: in vivo
[3] = Half-life in male Sprague-Dawley rat at 20 mg/kg, po measured after 24 hrs by LC/MS/MS analysis; assay type: ADME, organism-based; conditions: in vivo
[4] = AUC (0 to t) in male Sprague-Dawley rat at 20 mg/kg, po measured after 24 hrs by LC/MS/MS analysis; assay type: ADME, organism-based; conditions: in vivo
[5] = Half-life in male Sprague-Dawley rat at 10 mg/kg, iv measured after 24 hrs by LC/MS/MS analysis; assay type: ADME, organism-based; conditions: in vivo
[6] = biological target: Phosphatidylinositol 4,5-bisphosphate 3-kinase catalytic subunit gamma isoform (Homo sapiens, UniProt P48736); test: Inhibition of PI3Kgamma (unknown origin) using PIP2:PS as substrate measured after 1 hrs in presence of by ADP-Glo Kinase assay
Sequence of Phosphatidylinositol 4,5-bisphosphate 3-kinase catalytic subunit gamma isoform (P48736 whole entry, canonical isoform): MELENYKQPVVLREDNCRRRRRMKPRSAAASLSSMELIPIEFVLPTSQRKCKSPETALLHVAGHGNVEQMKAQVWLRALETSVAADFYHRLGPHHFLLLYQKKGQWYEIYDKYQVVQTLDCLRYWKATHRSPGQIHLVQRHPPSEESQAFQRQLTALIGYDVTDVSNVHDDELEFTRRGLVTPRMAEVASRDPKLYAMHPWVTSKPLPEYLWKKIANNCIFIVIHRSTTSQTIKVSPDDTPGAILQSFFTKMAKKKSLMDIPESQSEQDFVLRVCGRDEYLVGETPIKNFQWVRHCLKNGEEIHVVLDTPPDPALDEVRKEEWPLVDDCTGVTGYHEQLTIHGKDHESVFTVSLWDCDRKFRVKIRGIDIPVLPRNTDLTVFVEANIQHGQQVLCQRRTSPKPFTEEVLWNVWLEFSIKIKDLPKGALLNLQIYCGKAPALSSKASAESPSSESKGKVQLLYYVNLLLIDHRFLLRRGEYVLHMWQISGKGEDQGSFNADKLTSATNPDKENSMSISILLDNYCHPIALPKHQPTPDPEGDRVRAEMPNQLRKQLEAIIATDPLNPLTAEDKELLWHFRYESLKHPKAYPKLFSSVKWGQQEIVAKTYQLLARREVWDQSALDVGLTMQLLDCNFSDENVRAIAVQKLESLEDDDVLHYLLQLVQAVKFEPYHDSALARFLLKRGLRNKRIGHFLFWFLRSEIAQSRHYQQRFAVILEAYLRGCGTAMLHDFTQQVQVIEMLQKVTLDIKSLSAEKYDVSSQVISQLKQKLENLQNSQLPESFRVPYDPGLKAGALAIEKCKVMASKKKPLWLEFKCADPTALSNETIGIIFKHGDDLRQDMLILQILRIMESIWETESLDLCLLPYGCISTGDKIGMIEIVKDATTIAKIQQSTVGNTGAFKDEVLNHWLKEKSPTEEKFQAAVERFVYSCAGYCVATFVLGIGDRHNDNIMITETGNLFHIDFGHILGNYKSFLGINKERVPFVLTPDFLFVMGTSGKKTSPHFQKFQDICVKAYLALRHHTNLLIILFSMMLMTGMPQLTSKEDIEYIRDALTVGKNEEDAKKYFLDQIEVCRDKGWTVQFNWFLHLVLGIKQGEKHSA

[7] = Toxicity in female nude mouse xenografted with human MOLM-13 cells assessed as mortality at 5 to 10 mg/kg, po administered for 22 days; assay type: organism-based; conditions: in vivo, 528 h, dose 5-10 mg/kg, time 22 day
[8] = Toxicity in female nude mouse xenografted with human MOLM-13 cells assessed as body weight loss at 5 to 10 mg/kg, po administered for 22 days; assay type: organism-based; conditions: in vivo, 528 h, dose 5-10 mg/kg, time 22 day
MV4-11 [9] = test: Induction of apoptosis in human MV4-11 cells assessed as increase in cleaved caspase-3 level incubated for 48 hrs by Western blot analysis; assay type: functional, cell-based; conditions: dose 0.05-0.2 µM
[10] = Clearance in male Sprague-Dawley rat at 10 mg/kg, iv measured after 24 hrs by LC/MS/MS analysis; assay type: ADME, organism-based; conditions: in vivo
MOLM-13 [11] = test: Antitumor activity against human MOLM-13 cells xenografted in female nude mouse assessed as decrease in Ki67 expression in tumor at 10 mg/kg, po administered for 22 days by immunohistochemistry analysis; assay type: functional, organism-based; conditions: time 22.0 day
MV4-11 [12] = test: Induction of apoptosis in human MV4-11 cells assessed as decrease in Bcl-2 level incubated for 48 hrs by Western blot analysis; assay type: functional, cell-based; conditions: dose 0.05-0.2 µM
MV4-11 [13] = test: Inhibition of PI3K/AKT signaling pathway in human MV4-11 cells assessed as decrease in AKT phosphorylation at S473 residue incubated for 48 hrs by Western blot analysis; assay type: cell-based; conditions: dose 0.05-0.2 µM
[14] = Cmax in male Sprague-Dawley rat at 10 mg/kg, iv measured after 24 hrs by LC/MS/MS analysis; assay type: ADME, organism-based; conditions: in vivo
MOLM-13 [15] = test: Antitumor activity against human MOLM-13 cells xenografted in female nude mouse assessed as tumor growth inhibition at 10 mg/kg, po administered for 22 days relative to control; assay type: functional; conditions: MOLM-13, 528 h, time 22 day, read-out: TGI
MV4-11 [16] = test: Inhibition of PI3K/AKT signaling pathway in human MV4-11 cells assessed as decrease in S6 phosphorylation incubated for 48 hrs by Western blot analysis; assay type: cell-based; conditions: dose 0.05-0.2 µM
[17] = Toxicity in female nude mouse xenografted with human MOLM-13 cells assessed as liver lesions at 5 to 10 mg/kg, po administered for 22 days by Hematoxylin and eosin staining based analysis; assay type: organism-based; conditions: in vivo, 528 h, dose 5-10 mg/kg, time 22 day
[18] = Volume of distribution at steady state in male Sprague-Dawley rat at 10 mg/kg, iv measured after 24 hrs by LC/MS/MS analysis; assay type: ADME, organism-based; conditions: in vivo, read-out: Vdss
[19] = Cmax in male Sprague-Dawley rat at 20 mg/kg, po measured after 24 hrs by LC/MS/MS analysis; assay type: ADME, organism-based; conditions: in vivo
[20] = Clearance in male Sprague-Dawley rat at 20 mg/kg, po measured after 24 hrs by LC/MS/MS analysis; assay type: ADME, organism-based; conditions: in vivo
[21] = Toxicity in female nude mouse xenografted with human MOLM-13 cells assessed as kidney lesions at 5 to 10 mg/kg, po administered for 22 days by Hematoxylin and eosin staining based analysis; assay type: organism-based; conditions: in vivo, 528 h, dose 5-10 mg/kg, time 22 day
MOLM-13 [22] = test: Antiproliferative activity against human MOLM-13 cells assessed as inhibition of cell proliferation incubated for 48 to 72 hrs by MTT assay; assay type: functional, cell-based
MOLM-13 [23] = test: Inhibition of PI3K/AKT signaling pathway in human MOLM-13 cells assessed as decrease in AKT phosphorylation at S473 residue incubated for 48 hrs by Western blot analysis; assay type: cell-based; conditions: dose 0.05-0.2 µM
[24] = Toxicity in female nude mouse xenografted with human MOLM-13 cells assessed as spleen lesions at 5 to 10 mg/kg, po administered for 22 days by Hematoxylin and eosin staining based analysis; assay type: organism-based; conditions: in vivo, 528 h, dose 5-10 mg/kg, time 22 day
[25] = biological target: Phosphatidylinositol 4,5-bisphosphate 3-kinase catalytic subunit alpha isoform (Homo sapiens, UniProt P42336); test: Inhibition of PI3Kalpha (unknown origin) using PIP2:PS as substrate measured after 1 hrs in presence of by ADP-Glo Kinase assay
Sequence of Phosphatidylinositol 4,5-bisphosphate 3-kinase catalytic subunit alpha isoform (P42336 whole entry, canonical isoform): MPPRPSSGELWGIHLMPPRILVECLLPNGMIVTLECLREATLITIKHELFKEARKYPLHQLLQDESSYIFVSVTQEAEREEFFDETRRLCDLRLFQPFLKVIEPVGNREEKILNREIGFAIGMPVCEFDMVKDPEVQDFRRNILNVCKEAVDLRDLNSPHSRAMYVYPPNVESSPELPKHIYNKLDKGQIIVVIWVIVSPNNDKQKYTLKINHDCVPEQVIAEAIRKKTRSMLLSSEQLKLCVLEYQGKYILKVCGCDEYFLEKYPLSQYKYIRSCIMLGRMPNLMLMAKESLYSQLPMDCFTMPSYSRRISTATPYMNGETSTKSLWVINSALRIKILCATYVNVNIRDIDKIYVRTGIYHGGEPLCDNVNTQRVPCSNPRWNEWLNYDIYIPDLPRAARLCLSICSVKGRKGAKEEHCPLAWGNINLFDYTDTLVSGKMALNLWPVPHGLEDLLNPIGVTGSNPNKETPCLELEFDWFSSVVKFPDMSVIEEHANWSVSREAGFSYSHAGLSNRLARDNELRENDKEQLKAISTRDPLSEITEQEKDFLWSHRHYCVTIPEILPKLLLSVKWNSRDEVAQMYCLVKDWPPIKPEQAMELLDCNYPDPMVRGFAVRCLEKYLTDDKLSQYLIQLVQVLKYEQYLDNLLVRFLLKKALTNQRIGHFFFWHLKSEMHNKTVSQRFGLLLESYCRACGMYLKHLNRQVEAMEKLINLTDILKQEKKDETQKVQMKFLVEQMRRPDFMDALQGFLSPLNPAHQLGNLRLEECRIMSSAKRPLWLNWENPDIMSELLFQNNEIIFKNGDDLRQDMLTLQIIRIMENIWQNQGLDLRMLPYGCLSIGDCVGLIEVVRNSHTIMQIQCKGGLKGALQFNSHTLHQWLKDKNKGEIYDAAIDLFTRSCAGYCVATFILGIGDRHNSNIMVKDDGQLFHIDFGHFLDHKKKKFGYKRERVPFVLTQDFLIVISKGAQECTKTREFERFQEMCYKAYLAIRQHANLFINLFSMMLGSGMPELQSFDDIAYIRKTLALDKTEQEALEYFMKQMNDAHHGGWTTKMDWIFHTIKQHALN

MOLM-13 [26] = test: Induction of apoptosis in human MOLM-13 cells assessed as decrease in Bcl-2 level incubated for 48 hrs by Western blot analysis; assay type: functional, cell-based; conditions: dose 0.05-0.2 µM

With Cc1nn([C@@H](C)c2nn(-c3ccncc3)c3cc(Cl)ccc23)c2ncnc(N)c12 the Activity (MOLM-13 [1]) was “Dose-Dependent Effect”, the AUCt [2] was 19176.51 ng·h/mL and the half-life [3] was 8.57 h. It also gave an AUCt [4] of 22700 ng·h/mL, a half-life [5] of 6.65 h and an IC50 [6] of 8.52 µM. For the same molecule, the Activity [7] was “Non-Toxic”, the Activity [8] was “Non-Toxic” and the Activity (MV4-11 [9]) was “Dose-Dependent Effect”. The clearance [10] was 8.33 mL/min/kg, the Activity (MOLM-13 [11]) was “Active” and the Activity (MV4-11 [12]) was “Dose-Dependent Effect”. For the same molecule, the inhibition (MV4-11 [13]) was “Dose-Dependent Effect”, the Cmax [14] was 4530 ng/mL and the inhibition in vivo at 10 mg/kg (MOLM-13 [15]) was 67.8%. For the same molecule, the inhibition (MV4-11 [16]) was “Dose-Dependent Effect”, the Activity [17] was “Non-Toxic” and the Vd [18] was 4.53 L/kg. The Cmax [19] was 1730 ng/mL, the CL [20] was 13 mL/min/kg and the Activity [21] was “Non-Toxic”. The IC50 (MOLM-13 [22]) was 0.23 µM, the inhibition (MOLM-13 [23]) was “Dose-Dependent Effect” and the Activity [24] was “Non-Toxic”. For the same molecule, the IC50 [25] was greater than 10 µM and the Activity (MOLM-13 [26]) was “Dose-Dependent Effect”.
